Reference: US20210228531A1, “TARGETED TREATMENT OF AUTISM SPECTRUM DISORDER AND OTHER NEUROLOGICAL OR PSYCHIATRIC DISORDERS” (Tufts Medical Center, Inc., priority 2018, published 2021)

How the values were obtained:
[1] = after IP or oral administration; cited from earlier work
[2] = tested on: vascular endothelial growth factor (VEGF); details: Jeong et al. 2011; cited from earlier work
[3] = tested on: glucose transporter 1 (GLUT-1); details: Jeong et al. 2011; cited from earlier work
[4] = clinical trials (U.S. Pat. No. 3,995,061); cited from earlier work
hnRNP L [5] = experiment: Western Blot analysis of hnRNP L in cultured rat primary cortical neurons; type: cell-based
From the text: Compounds that modify hnRNP L levels are useful for the development of ASD/mental retardation/neurological disorders.

hnRNP L [6] = details: cited from earlier work
BIN1 = details: human osteosarcoma cells (U2OS), proteome analysis; cited from earlier work
[7] = human osteosarcoma cells (U2OS), proteome analysis

Structure (SMILES)	toxicity as assessed by LD50 [1]	expression of VEGF [2]	expression of GLUT-1 [3]	tolerability in clinical trials [4]	levels of hnRNP L (hnRNP L [5])	increase in hnRNP L levels (hnRNP L [6]; [7])	increase in the levels of three proteins, including hnRNP L and BIN1 (hnRNP L [6]; [7])	hnRNP L protein levels in vitro (hnRNP L [6]; in vitro (Kang et al. 2006))	increase in BIN1 levels (BIN1)
CCOc1c(Cl)c(C)c(C=O)c(O)c1C/C=C(C)/C=C/C1(C)C(C)CCC(=O)C1C (stereo not shown) [4-O-ethyl-ascochlorin, 4-O-ethylascochlorin]	low toxicity								
COc1c(Cl)c(C)c(C=O)c(O)c1C/C=C(C)/C=C/[C@@]1(C)[C@H](C)CCC(=O)[C@@H]1C [MAC, 4-O-methylascochlorin]	low toxicity	increases the expression	increases the expression	well tolerated					
CC(/C=C/[C@@]1(C)[C@H](C)CCC(=O)[C@@H]1C)=C\Cc1c(O)c(Cl)c(C)c(C=O)c1O [ascochlorin]					increased levels of hnRNP L	12 x	≥ 10 fold	increase hnRNP L protein levels	10 x
